In US20060128729A1, “Novel bicyclic heterocyclic compounds, process for their preparation and compositions containing them” (priority 2004, published 2006):
Where a name gives a salt, the structure may show the parent alone.

Assays:
[1] = test system: human aortic smooth muscle cells; assay: Smooth muscle cell proliferation assay (radiolabeled thymidine incorporation or CellTiter AQ); type: cell-based; conditions: human aortic SMC; for IC50: 24 h post treatment in serum-containing growth medium, read-out: Activity: concentration giving 50% inhibition of smooth muscle cell proliferation
Procedure: Primary cultures of human aortic smooth muscle cells were obtained from Clonetics. SMC were initially grown in T-75 flasks prior to seeding in 96 well plates. The 96-well plates were seeded with 4000 cells/well. The following day cells were washed with serum free medium and left in serum free media for 24 hours for serum starvation. The next day cells received growth medium containing serum with or without compound. 24 h post treatment cell proliferation was assayed either assessing the incorporation of radiolabeled thymidine to DNA or using a non-radioactive cell proliferation kit from Promega (CellTiter AQ).

[2] = test system: IL-6 (interleukin-6); assay: IL-6 ELISA on media of stimulated human aortic endothelial cells; type: cell-based; conditions: Endothelial cell; HAECs treated with TNFα (0.05 ng/ml) or glycated human serum albumin (300 μg/ml) for 18-24 h; read-out: IC50 in IL-6 enzyme-linked immunosorbent assay
Procedure: (§1) For inflammation assays, human aortic endothelial cells (HAECS) in 96 well plates were washed once with treatment medium (basal medium containing 1% FBS). Cells were treated with an inflammatory agent such as TNFα (0.05 ng/ml) or glycated human serum albumin (US Biologicals) as source of advanced glycation end products (AGEs) (300 μg/ml) for 18-24 h in the presence or absence of specified amount of compound. Cell supernatants were collected and used for the estimation of MCP-1 (monocyte chemoattractant protein 1) or IL-6 (interleukin-6) by ELISA. Cell layers were washed and used for determining the levels of vascular cell adhesion molecule-1 (VCAM-1).
IL-6 levels in endothelial cell media were determined using DuaSet IL-6 ELISA kit from R&D Systems (Cat No DY206) as described by the manufacturer. Mouse anti-human IL-6 antibody was used as the capture antibody and biotinylated goat anti-human IL-6 was used as detection antibody. Culture medium was incubated with the capture antibody (in 96-well plate) for 2 h at room temperature. Wells were washed three times with wash buffer (0.05% Tween-20 in PBS) followed by incubation with detection antibody for 2 h at room temperature. The wells were then incubated with streptavidin HRP and color development was read at 450 nm in a microplate reader.

[3] = test system: MCP-1 (monocyte chemoattractant protein 1); assay: MCP-1 ELISA on supernatants of stimulated human aortic endothelial cells; type: cell-based; conditions: Homo sapiens, Endothelial cell, HAECs treated with TNFα (0.05 ng/ml) or glycated human serum albumin (300 μg/ml) for 18-24 h; read-out: IC50 in MCP-1 enzyme-linked immunosorbent assay
Procedure: as §1
MCP-1 ELISA was carried out using Quantikine Human MCP-1 kit as described by the manufacturer (R&D Systems, Inc.). Mouse anti-human MCP-1 was used as the capture antibody and HRP (horse radish peroxidase)-conjugated goat anti-human MCP-1 antibody was used as detection antibody. Culture medium was incubated with the capture antibody (in 96-well plate) for 2 h at room temperature. Wells were washed three times with wash buffer (0.05% Tween-20 in PBS) followed by incubation with detection antibody for 2 h at room temperature. Color development was read at […] in a microplate reader.

[4] = test system: VCAM-1 (vascular cell adhesion molecule-1); assay: VCAM-1 ELISA on cell layers of stimulated human aortic endothelial cells; type: cell-based; conditions: Homo sapiens, Endothelial cell, HAECs treated with TNFα (0.05 ng/ml) or glycated human serum albumin (300 μg/ml) for 18-24 h; read-out: IC50 in VCAM-1 enzyme-linked immunosorbent assay
Procedure: as §1
The cells were fixed cells with 100% methanol for 10 min at room temperature. The methanol was removed and the plate was air-dried. 100 ul of 1:1000 diluted primary antibody (polyclonal goat anti-human VCAM-1—R&D Systems #BBA19) was then added and incubated for 2 h at 37 C. The cells were washed with PBS and 100 ul of 1:5000 dilution of secondary antibody (rabbit anti-goat IgG-HRP—Zymed #81-1620) was added and incubated for 1 h at room temperature. Cells were washed and 100 ul of substrate solution (R&D Systems# DY999) was added and incubated for 20 min in the dark at room temp. 50 μl of stop solution (2N sulfuric acid) was added to the wells and absorbency at 450 nm was noted.

| SMILES | IC50 [2] | IC50 [3] | IC50 [4] | melting point | IC50 [1] | inhibition at 1 µM ([1]; at 1 μM, 24 h post treatment) | inhibition at 5 µM ([1]; at 5 μM, 24 h post treatment) |
| --- | --- | --- | --- | --- | --- | --- | --- |
| CCCc1nn(C)c2c(Nc3ccc(OC)c(Cl)c3)nc(-c3ccccc3)nc12.Cl [E 27, (3-chloro-4-methoxy-phenyl)-(1-methyl-5-phenyl-3-propyl-1H-pyrazolo[4,3-d]pyrimidin-7-yl)-amine hydrochloride] | 9.6 µM | 5.7 µM | 8.4 µM | 238 to 240 °C | 1.28 µM |  |  |
| CCCc1nn(C)c2c(Nc3ccc(OC)c(Cl)c3)nc(-c3ccc(F)cc3)nc12.Cl [E 2, (3-chloro-4-methoxy-phenyl)-[5-(4-fluoro-phenyl)-1-methyl-3-propyl-1H-pyrazolo[4,3-d]pyrimidin-7-yl]-amine-hydrochloride] | 9 µM | 13.4 µM | 10.4 µM | 253.65 °C | 1.62 µM |  |  |
| CCCc1nn(C)c2c(Nc3ccc(OC)c(F)c3)nc(-c3cccs3)nc12.Cl [E 10, (3-fluoro-4-methoxy-phenyl)-(1-methyl-3-propyl-5-thiophen-2-yl-1H-pyrazolo[4,3-d]pyrimidin-7-yl) -amine hydrochloride] |  | 1.6 µM | 11.8 µM | 238 to 242 °C |  | 96% |  |

The remaining compounds from weak to strong by IC50 [3], led by results:

| IC50 [2] | IC50 [3] | IC50 [4] | melting point | SMILES | IC50 [1] | inhibition at 1 µM ([1]; at 1 μM, 24 h post treatment) | inhibition at 5 µM ([1]; at 5 μM, 24 h post treatment) |
| --- | --- | --- | --- | --- | --- | --- | --- |
|  | 7.5 µM | 8.4 µM | 248 to 250 °C | CCCc1nn(C)c2c(Nc3ccc(OC)c(F)c3)nc(-c3ccccc3)nc12.Cl [E 28, (3-fluoro-4-methoxy-phenyl)-(1-methyl-5-phenyl-3-propyl-1H-pyrazolo[4,3-d]pyrimidin-7-yl)-amine hydrochloride] |  |  | 70% |
| 5.4 µM | 7.2 µM | 11.8 µM |  | CCCc1nn(C)c2c(Nc3ccc(OC)c(F)c3)nc(-c3ccc(F)cc3)nc12 [E 1, (3-fluoro-4-methoxy-phenyl)-[5-(4-fluoro-phenyl)-1-methyl-3-propyl-1H-pyrazolo[4,3-d]pyrimidin-7-yl]-amine hydrochloride] | 0.89 µM |  |  |
|  | 5.2 µM | 8.9 µM | 203.83 °C | Cl.Fc1ccc(-c2nc(Nc3ccc(Cl)c(C(F)(F)F)c3)c3cnn(-c4ccccc4)c3n2)cc1 [E 81, (4-chloro-3-trifluoromethyl-phenyl)-[6-(4-fluoro-phenyl)-1-phenyl-1H-pyrazolo[3,4-d]pyrimidin-4-yl]-amine hydrochloride] | 3.9 µM |  |  |
